Consider three compounds from US6852744B2, “Pyrrolidine derivatives and their use as chymase inhibitor” (Dainippon Pharmaceutical Co., Ltd., priority 2000, dated 2005).

Numbering of substitutions follows the chain as printed.

The test system of data set [1] is chymase-induced dye leakage. The data set can be described thus: Skin permeability test: inhibition of vascular permeability (Evans Blue dye leakage). It counts as in vivo. As to conditions: male Hartley guinea pigs, 100 mg/kg orally 1 hour before intradermal injection of human chymase. The procedure: Skin permeability test was carried out according to the following method. Briefly, male Hartley guinea pigs (350-460 g, Shizuoka Laboratory Animal Center, Japan) were anesthetized by intraperitoneal injection of Nembutal™ (30 mg/kg; Dainippon Pharmaceutical Co., Ltd., Japan). After shaving the guinea pigs dorsa, 50 μl of purified human chymase (Elastin Products Inc., USA) diluted with phosphate buffered saline (PBS) to a concentration of 1.8 units /55 μg protein/ml (1 unit of chymase represents the amount of chymase required to hydrolyze 1.0 μmole of N-benzoyl-L-tyrosine-ethyl ester (BTEE) per minute at 25° C.; pH 7.8) were injected intradermally into three dorsal sites of each animal. […] The amounts of dye leakage into the dorsal skins were measured according to the following method.
Briefly, the area around each injection site (16 mm diameter) was punched out from the inside of the skin, and the leaked dye was extracted by incubation of the punched skin in N,N-dimethylformamide (DMF, 3 ml) at 55° C. overnight. The absorbance of the dye extract was then measured using a spectrophotometer at a wavelength of 620 nm. […] The amount of chymase-induced dye leakage (ACDL) and the amount of solvent-induced dye leakage (ASDL) in each animal were calculated as the average of dye leakage from the three treated dorsal sites in each case. […]

For another data set, the target named is T1, human chymase (Homo sapiens, UniProt P23946).
T1 construct: made in house; host or cells: COS7 cells (transient transfection)
T1 sequence (P23946 22-247): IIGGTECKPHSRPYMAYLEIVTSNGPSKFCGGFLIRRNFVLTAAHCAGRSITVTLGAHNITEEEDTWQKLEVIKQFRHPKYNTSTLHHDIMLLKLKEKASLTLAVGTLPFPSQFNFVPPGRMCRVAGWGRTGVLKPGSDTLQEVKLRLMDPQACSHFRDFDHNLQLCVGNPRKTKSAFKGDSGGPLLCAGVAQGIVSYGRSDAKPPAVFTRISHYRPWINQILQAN
The data set can be described thus: Human chymase inhibitory activity (in vitro, angiotensin I substrate). In kind it is biochemical. As to conditions: recombinant human chymase (COS7 cells); substrate angiotensin I; 37° C.; read-out: Human Chymase Inhibition (IC50:nM). The procedure: (§1) The inhibitory activities of the compounds on monkey chymase and human chymase were tested in vitro. The test compounds are as shown by Compound Nos. in Tables 13 and 14.
Preparation of Human Chymase
Human chymase was produced in mammalian cells using a recombinant DNA technique.
Construction of a human prochymase expression plasmid was performed in the following manner. Briefly, single stranded cDNA was synthesized from human heart mRNA (Clontech Laboratories, Inc.). Polymerase chain reaction amplification was carried out using the cDNA as a template and appropriate pairs of primers. The primer sequences were determined based on the human preprochymase. The amplified product was cloned into the plasmid pUC18, and then recloned into the plasmid pBluescript II KS(+) (Stratagene). Finally, the DNA fragment carrying the entire protein-coding sequences of the human preprochymase was inserted to a transient expression vector by the usual method to yield the human prochymase expression plasmid.
Transfection of COS7 cells with the human prochymase expression plasmid was carried out using the FuGene™ 6 transfection reagent (Boehringer Mannheim). About 7 hours after exposure to DNA, the culture medium was changed to a serum-free one. The culture supernatant was collected after 2 days culture.
Human prochymase was purified from the culture supernatant using a heparin actigel column as described above in the preparation of monkey chymase.
In order to produce active chymase, the human prochymase was incubated with dipeptidylpeptidase I (Sigma). The resultant active human chymase was purified using a heparin actigel column as described above. The active human chymase was eluted with 0.01 mol/1000 ml sodium phosphate buffer pH 7.4 containing 2 mol/1000 ml NaCl.
(§2) Measurement of Chymase Inhibitory Activity (In Vitro Assay)
(§3) The chymase inhibitory activities of compounds I-A of this invention were measured according to the following method. Briefly, the purified monkey or human chymase was diluted to an appropriate concentration with 0.01 mol/1000 ml sodium phosphate buffer, pH 7.4, containing 2 mol/1000 ml KCl and 0.1% Nonidet P-40 and used as enzyme solution. Angiotensin I (Peptide Institute Inc.) was diluted with water to 5 mg/ml and used as substrate solution. Test compounds were serially diluted with 10% DMSO. […] After pre-incubation of the mixture at 37° C., 20 μl of the substrate solution was added to the enzyme-test compound mixture and the new mixture was incubated at 37° C. Fifty μl of 30% trichloroacetic acid solution was finally added to stop the enzymatic reaction.
The amount of L-His-L-Leu was measured as angiotensin II produced by the enzymatic reaction. Briefly, 10 μl of the reaction mixture and 10 μl of 1% orthophthalaldehyde solution dissolved in methanol were mixed with 100 μl of 2 mol/1000 ml NaOH and kept at room temperature. The reaction was then stopped by adding 10 μl of 6 mol/1000 ml HCl. Finally, the fluorescence induced by the reaction was measured using in a photometer with an excitation wavelength of 355 nm and an emission wavelength of 460 nm. Chymase inhibitory activities of test compounds were expressed as 50% inhibitory concentration (IC50).

The next data set is described as follows: in vivo. The following applies: male, ddy, mouse, po.
For a further data set, the target named is T2, monkey chymase (Macaca fascicularis, UniProt P56435).
T2 construct: chymase was extracted from homogenized monkey cheek pouch and stomach; from tissue; host or cells: monkey cheek pouch and stomach
T2 sequence (P56435 22-247): T1 sequence (P23946 22-247) with F29S, A44V, E63K, D159Y, S201L, Q221K
The data set can be described thus: Monkey chymase inhibitory activity (in vitro, angiotensin I substrate). It counts as biochemical. The following applies: chymase purified from monkey cheek pouch and stomach; substrate angiotensin I; 37° C.; read-out: Monkey Chymase Inhibition (IC50:nM). The method, then: as §1
Preparation of Monkey Chymase
Chymase was purified from monkey cheek pouch and stomach in the following manner.
Briefly, chymase was extracted from homogenized monkey cheek pouch and stomach with 0.01 mol/1000 ml sodium phosphate buffer, pH 7.4, containing 2 mol/1000 ml KCl and 0.1% Nonidet P-40 (Amresco Inc.). The solution containing chymase was applied to a heparin actigel column, and the chymase-rich fractions were collected.
as §2
as §3, with “Briefly,” for “The chymase inhibitory activities of compounds I-A of this invention were measured according to the following method. Briefly,”
The amount of L-His-L-Leu was measured as angiotensin II produced by the enzymatic reaction. Briefly, 10 μl of the reaction mixture and 10 μl of 1% orthophthalaldehyde solution dissolved in methanol were mixed with 100 μl of 2 mol/1000 ml NaOH and kept at room temperature. The reaction was then stopped by adding 10 μl of 6 mol/1000 ml HCl.

A short description of data set [2]: Toxicity study, 2 weeks oral. It counts as in vivo. As to conditions: five-week-old male ddy mice; orally once a day for 2 weeks; 30 and 300 mg/kg/day. The method, then:
Five-week-old male ddy mice were administered orally once a day for 2 weeks with the compound I-A-1 at dose levels of 30 and 300 mg/kg/day.

Protocol for in vivo: Plasma levels of test compounds were measured in the following manner.
Briefly, test compounds were dissolved in DMSO to 100 mg/ml, and suspended with 0.5% tragacanth solution 1 mg/ml. Male ddy mice, weighing about 30 g, were orally administered the test compound solution. After one hour, blood was collected from the heart under anesthesia with Nembutal (Dainippon Pharmaceutical Co., Ltd.) and centrifuged to obtain plasma. The collected plasma (125 μl) was mixed with 10% DMSO (120 μl) and ethyl acetate (720 μl). After centrifugation, the ethyl acetate layer was collected and evaporated. The residue was dissolved and diluted serially as test samples with 10% DMSO. Chymase inhibitory activities of test samples were measured in the same manner as described in Experiment 1. In this chymase inhibitory assay of test samples, 0.1 mol/1000 ml sodium phosphate buffer, pH 7.4 contained 5 mmol/1000 ml ethylenediaminetetraacetic acid (EDTA) disodium salt, 0.77 mmol/1000 ml diisopropyl fluorophosphate (DFP) and 8 mmol/1000 ml dipyridyl. Plasma concentrations of test compounds were calculated from calibration curves.
The calibration curve was obtained in the following manner. Test compounds (0.06-60 ng) were added into the control plasma. The control plasma was treated in the same manner as for test samples. Finally, chymase inhibitory activities of the 10% DMSO-dissolved residues were measured and plotted against the amount of test compounds.

One may read the IC50 as the midpoint of a concentration-inhibition curve. Turning to `Cc1nnsc1C(=O)N[C@H](C(=O)N1CCC[C@H]1C(=O)N[C@@H](Cc1csc2ccccc12)C(=O)C(F)(F)F)C(C)C` [I-A-20, N-[(1S)-2-((2S)-2-{N-[(1S)-1-(benzo[b]thiophen-3-ylmethyl)-3,3,3-trifluoro-2-oxopropyl]carbamoyl}pyrrolidinyl)-1-(methylethyl)-2-oxoethyl](4-methyl(1,2,3-thiadiazol-5-yl))carboxamide], the “Dye leakage inhibition rate (%)” value in data set [1] was 59%. For the same compound, the IC50 at human chymase was 36 nM; at monkey chymase it was 5.1 nM. For the same compound, the concentration at 1 h in “in vivo” was 570 ng/mL.

For `Cc1noc(C)c1C(=O)N[C@H](C(=O)N1CCC[C@H]1C(=O)N[C@@H](Cc1csc2ccccc12)C(=O)C(F)(F)F)C(C)C` [I-A-1, N-[(1S)-2-((2S)-2-{N-[(1S)-1-(benzo[b]thiophen-3-yl-methyl)-3,3,3-trifluoro-2-oxopropyl]carbamoyl}pyrrolidinyl)-1-(methylethyl)-2-oxoethyl](3,5-dimethylisoxazol-4-yl)carboxamide], in data set [1], the “Dye leakage inhibition rate (%)” value amounted to 34%. Moreover, in data set [2], the “treatment-related finding (body weight, diet consumption, heart, liver, kidney weight, necropsy finding, hematology, blood chemistry)” value is “no treatment-related finding”. The IC50 at human chymase is 55 nM; at monkey chymase it was 3.8 nM. In “in vivo”, the concentration at 1 h was found to be 480 ng/mL.

Turning to `Cc1noc(C)c1C(=O)N[C@@H](C)C(=O)N1CCC[C@H]1C(=O)N[C@@H](Cc1csc2ccccc12)C(=O)C(F)(F)F` [I-A-5, N-[(1S)-2-((2S)-2-{N-[(1S)-1-(benzo[b]thiophen-3-ylmethyl)-3,3,3-trifluoro-2-oxopropyl]carbamoyl}pyrrolidinyl)-1-methyl-2-oxoethyl](3,5-dimethylisoxazol-4-yl)carboxamide], the IC50 on human chymase was determined as 83 nM; at monkey chymase, 16 nM. The same compound returned a concentration at 1 h in “in vivo” of 630 ng/mL.
